Test results reported in ChEMBL document CHEMBL1201862, “PubChem BioAssay data set” (2004).
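These data come from cells grown in 96-well plates and exposed to compound for 48 hours at five concentrations. Here, GI50 denotes the concentration required for 50% inhibition of growth.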 Active and inactive are the calls of the source. Cut-off read from the data, not from the text of the source: active = GI50 up to about 1.1 µM and inactive = higher.

How the values were obtained:
Experiment in all cases: NCI anticancer screen, dose series, 48 h
786-0 = tested on: 786-0
A498 = tested on: A498
A549 = tested on: A549
ACHN = tested on: ACHN
CAKI-1 = tested on: CAKI-1
CCRF-CEM = tested on: CCRF-CEM
DLD-1 = tested on: DLD-1
DMS-114 = tested on: DMS-114
DMS-273 = tested on: DMS-273
EKVX = tested on: EKVX
HCC 2998 = tested on: HCC 2998
HCT-116 = tested on: HCT-116
HCT-15 = tested on: HCT-15
HL-60 = tested on: HL-60
HOP-62 = tested on: HOP-62
HT-29 = tested on: HT-29
IGROV-1 = tested on: IGROV-1
K562 = tested on: K562
KM-20L2 = tested on: KM-20L2
KM12 = tested on: KM12
LXFL 529 = tested on: LXFL 529
M14 = tested on: M14
M19-MEL = tested on: M19-MEL
MOLT-4 = tested on: MOLT-4
Malme-3M = tested on: Malme-3M
NCI-H226 = tested on: NCI-H226
NCI-H23 = tested on: NCI-H23
NCI-H460 = tested on: NCI-H460
OVCAR-3 = tested on: OVCAR-3
OVCAR-4 = tested on: OVCAR-4
OVCAR-5 = tested on: OVCAR-5
OVCAR-8 = tested on: OVCAR-8
RPMI-8226 = tested on: RPMI-8226
RXF 393 = tested on: RXF 393
SF-295 = tested on: SF-295
SF-539 = tested on: SF-539
SK-MEL-28 = tested on: SK-MEL-28
SK-MEL-2 = tested on: SK-MEL-2
SK-MEL-5 = tested on: SK-MEL-5
SK-OV-3 = tested on: SK-OV-3
SNB-75 = tested on: SNB-75
SNB-78 = tested on: SNB-78
SW-620 = tested on: SW-620
TK-10 = tested on: TK-10
U-251 = tested on: U-251
UACC-257 = tested on: UACC-257
UACC-62 = tested on: UACC-62
UO-31 = tested on: UO-31
XF498 = tested on: XF498
COLO 205 = tested on: COLO 205
HOP-92 = tested on: HOP-92
LOX IMVI = tested on: LOX IMVI
NCI-H522 = tested on: NCI-H522
SF-268 = tested on: SF-268
SN12C = tested on: SN12C
SNB-19 = tested on: SNB-19
SR = tested on: SR
HOP-18 = tested on: HOP-18

Q: What does the source list for `Cc1ccc(S(=O)(=O)Nc2ccccc2C(C)(C)C)cc1`?
A: GI50 (786-0): 25.5 µM (inactive); GI50 (A498): 24 µM (inactive); GI50 (A549): 27.7 µM (inactive); GI50 (ACHN): 28.1 µM (inactive); GI50 (CAKI-1): 18.7 µM (inactive); GI50 (CCRF-CEM): 21.4 µM (inactive); GI50 (DLD-1): 30.8 µM (inactive); GI50 (DMS-114): 17.9 µM (inactive); GI50 (DMS-273): 17.3 µM (inactive); GI50 (EKVX): 33.2 µM (inactive); GI50 (HCC 2998): 42.8 µM (inactive); GI50 (HCT-116): 15.2 µM (inactive); GI50 (HCT-15): 20.7 µM; GI50 (HL-60): 16.8 µM (inactive); GI50 (HOP-62): 20 µM (inactive); GI50 (HT-29): 16.2 µM (inactive); GI50 (IGROV-1): 30.7 µM (inactive); GI50 (K562): 18 µM (inactive); GI50 (KM-20L2): 19 µM (inactive); GI50 (KM12): 17.2 µM (inactive); GI50 (LXFL 529): 24.9 µM (inactive); GI50 (M14): > 10 µM (inactive); GI50 (M19-MEL): 25.6 µM (inactive); GI50 (MOLT-4): 20.9 µM (inactive); GI50 (Malme-3M): 30.6 µM (inactive); GI50 (NCI-H226): 22.1 µM (inactive); GI50 (NCI-H23): 15.5 µM (inactive); GI50 (NCI-H460): 18.6 µM (inactive); GI50 (OVCAR-3): 17.2 µM (inactive); GI50 (OVCAR-4): 25.6 µM (inactive); GI50 (OVCAR-5): 34.6 µM (inactive); GI50 (OVCAR-8): 29.6 µM (inactive); GI50 (RPMI-8226): 18.7 µM (inactive); GI50 (RXF 393): 6.31 µM (inactive); GI50 (SF-295): 13.7 µM (inactive); GI50 (SF-539): 17.3 µM (inactive); GI50 (SK-MEL-28): 19.7 µM (inactive); GI50 (SK-MEL-2): 26.7 µM (inactive); GI50 (SK-MEL-5): 15.2 µM (inactive); GI50 (SK-OV-3): 30.5 µM (inactive); GI50 (SNB-75): 35.9 µM (inactive); GI50 (SNB-78): 31.6 µM (inactive); GI50 (SW-620): 32.3 µM (inactive); GI50 (TK-10): 37.1 µM (inactive); GI50 (U-251): 20.6 µM (inactive); GI50 (UACC-257): 16.1 µM (inactive); GI50 (UACC-62): 16.1 µM (inactive); GI50 (UO-31): 18.6 µM (inactive); GI50 (XF498): 22 µM (inactive)

Q: With `Fc1nc(F)nc(-c2c3ccccc3c3n2CCS3)n1` as the compound, how does the GI50 (786-0) read?
A: 78.5 µM (inactive)

Q: What about the GI50 (A498) of the same compound?
A: 30.8 µM (inactive)

Q: And the GI50 (A549)?
A: > 100 µM (inactive)

Q: What about the GI50 (ACHN) of the same compound?
A: > 100 µM (inactive)

Q: What about the GI50 (CAKI-1) of the same compound?
A: > 100 µM (inactive)

Q: And the GI50 (CCRF-CEM)?
A: 33.1 µM (inactive)

Q: What about the GI50 (COLO 205) of the same compound?
A: > 100 µM (inactive)

Q: And the GI50 (DLD-1)?
A: 57.8 µM (inactive)

Q: And the GI50 (DMS-114)?
A: > 100 µM (inactive)

Q: What about the GI50 (DMS-273) of the same compound?
A: 76.2 µM (inactive)

Q: And the GI50 (EKVX)?
A: > 100 µM (inactive)

Q: And the GI50 (HCC 2998)?
A: > 100 µM (inactive)

Q: And the GI50 (HCT-116)?
A: 65.5 µM (inactive)

Q: What about the GI50 (HCT-15) of the same compound?
A: 54.8 µM

Q: And the GI50 (HL-60)?
A: 46.8 µM (inactive)

Q: And the GI50 (HOP-62)?
A: 39.7 µM (inactive)

Q: And the GI50 (HOP-92)?
A: 39.4 µM (inactive)

Q: And the GI50 (HT-29)?
A: > 100 µM (inactive)

Q: What about the GI50 (IGROV-1) of the same compound?
A: > 100 µM (inactive)

Q: And the GI50 (K562)?
A: 47.5 µM (inactive)

Q: And the GI50 (KM-20L2)?
A: > 100 µM (inactive)

Q: What about the GI50 (KM12) of the same compound?
A: 47 µM (inactive)

Q: And the GI50 (LOX IMVI)?
A: 61.4 µM (inactive)

Q: And the GI50 (LXFL 529)?
A: 58.1 µM (inactive)

Q: What about the GI50 (M14) of the same compound?
A: 71.1 µM (inactive)

Q: And the GI50 (M19-MEL)?
A: > 100 µM (inactive)

Q: And the GI50 (MOLT-4)?
A: > 10 µM (inactive)

Q: What about the GI50 (Malme-3M) of the same compound?
A: > 100 µM (inactive)

Q: What about the GI50 (NCI-H226) of the same compound?
A: > 100 µM (inactive)

Q: And the GI50 (NCI-H23)?
A: > 100 µM (inactive)

Q: And the GI50 (NCI-H460)?
A: 61.4 µM (inactive)

Q: What about the GI50 (NCI-H522) of the same compound?
A: 47.2 µM (inactive)

Q: What about the GI50 (OVCAR-3) of the same compound?
A: > 100 µM (inactive)

Q: What about the GI50 (OVCAR-4) of the same compound?
A: 98.9 µM (inactive)

Q: And the GI50 (OVCAR-5)?
A: > 100 µM (inactive)

Q: And the GI50 (RPMI-8226)?
A: 33 µM (inactive)

Q: And the GI50 (RXF 393)?
A: 91.2 µM (inactive)

Q: What about the GI50 (SF-268) of the same compound?
A: 70.5 µM (inactive)

Q: What about the GI50 (SF-295) of the same compound?
A: 53.3 µM (inactive)

Q: What about the GI50 (SF-539) of the same compound?
A: > 100 µM (inactive)

Q: What about the GI50 (SK-MEL-28) of the same compound?
A: > 100 µM (inactive)

Q: What about the GI50 (SK-MEL-2) of the same compound?
A: 44.5 µM (inactive)

Q: What about the GI50 (SK-MEL-5) of the same compound?
A: 50.1 µM (inactive)

Q: And the GI50 (SK-OV-3)?
A: > 100 µM (inactive)

Q: What about the GI50 (SN12C) of the same compound?
A: > 100 µM (inactive)

Q: What about the GI50 (SNB-19) of the same compound?
A: > 100 µM (inactive)

Q: What about the GI50 (SNB-75) of the same compound?
A: 22.8 µM (inactive)

Q: And the GI50 (SNB-78)?
A: 23 µM (inactive)

Q: And the GI50 (SR)?
A: 37 µM (inactive)

Q: What about the GI50 (SW-620) of the same compound?
A: > 100 µM (inactive)

Q: What about the GI50 (TK-10) of the same compound?
A: > 10 µM (inactive)

Q: What about the GI50 (U-251) of the same compound?
A: 29 µM (inactive)

Q: And the GI50 (UO-31)?
A: 84.5 µM (inactive)

Q: And the GI50 (XF498)?
A: 23.4 µM (inactive)

Q: `COc1cc(C2C(Cl)C(=O)N2NC(=O)c2ccc(NC(C)=O)cc2)cc(OC)c1OC` (stereo not drawn) was tested. Which GI50 (A549) did it give?
A: > 100 µM (inactive)

Q: And the GI50 (ACHN)?
A: > 10 µM (inactive)

Q: And the GI50 (CCRF-CEM)?
A: > 100 µM (inactive)

Q: What about the GI50 (COLO 205) of the same compound?
A: > 100 µM (inactive)

Q: What about the GI50 (DLD-1) of the same compound?
A: > 100 µM (inactive)

Q: And the GI50 (HCT-116)?
A: > 100 µM (inactive)

Q: And the GI50 (HL-60)?
A: > 100 µM (inactive)

Q: And the GI50 (HOP-18)?
A: > 100 µM (inactive)

Q: What about the GI50 (HOP-62) of the same compound?
A: > 100 µM (inactive)

Q: And the GI50 (HOP-92)?
A: > 100 µM (inactive)

Q: And the GI50 (HT-29)?
A: > 100 µM (inactive)

Q: And the GI50 (IGROV-1)?
A: > 100 µM (inactive)

Q: What about the GI50 (K562) of the same compound?
A: > 100 µM (inactive)

Q: And the GI50 (KM12)?
A: > 100 µM (inactive)

Q: And the GI50 (LXFL 529)?
A: > 100 µM (inactive)

Q: What about the GI50 (M19-MEL) of the same compound?
A: > 100 µM (inactive)

Q: And the GI50 (MOLT-4)?
A: > 100 µM (inactive)

Q: And the GI50 (Malme-3M)?
A: > 100 µM (inactive)

Q: And the GI50 (NCI-H226)?
A: > 100 µM (inactive)

Q: What about the GI50 (NCI-H23) of the same compound?
A: > 100 µM (inactive)

Q: What about the GI50 (NCI-H460) of the same compound?
A: > 100 µM (inactive)

Q: And the GI50 (NCI-H522)?
A: > 100 µM (inactive)

Q: What about the GI50 (OVCAR-3) of the same compound?
A: > 100 µM (inactive)

Q: What about the GI50 (OVCAR-5) of the same compound?
A: > 100 µM (inactive)

Q: And the GI50 (RPMI-8226)?
A: > 100 µM (inactive)

Q: And the GI50 (SF-268)?
A: > 100 µM (inactive)

Q: And the GI50 (SF-295)?
A: > 100 µM (inactive)

Q: And the GI50 (SF-539)?
A: > 100 µM (inactive)

Q: And the GI50 (SK-MEL-28)?
A: > 100 µM (inactive)

Q: What about the GI50 (SK-MEL-2) of the same compound?
A: > 100 µM (inactive)

Q: And the GI50 (SK-MEL-5)?
A: > 100 µM (inactive)

Q: And the GI50 (SK-OV-3)?
A: > 100 µM (inactive)

Q: What about the GI50 (SNB-19) of the same compound?
A: > 100 µM (inactive)

Q: And the GI50 (SNB-75)?
A: > 100 µM (inactive)

Q: What about the GI50 (SW-620) of the same compound?
A: > 100 µM (inactive)

Q: And the GI50 (TK-10)?
A: > 100 µM (inactive)

Q: What about the GI50 (U-251) of the same compound?
A: > 100 µM (inactive)

Q: What about the GI50 (UACC-257) of the same compound?
A: > 100 µM (inactive)

Q: What about the GI50 (UACC-62) of the same compound?
A: > 100 µM (inactive)

Q: And the GI50 (UO-31)?
A: > 100 µM (inactive)
